Assays:
recombinant mPBR = target: T1, recombinant mPBR (Mus musculus, UniProt P50637); assay: 3H-PK 11195 radioligand binding to recombinant PBR (wild-type and mutated) expressed in IPTG-induced E. coli; details: 3H-PK 11195 binding to IPTG-induced bacteria expressing mouse PBR, Scatchard analysis
T1 construct: made in house; host or cells: Escherichia coli BL21(DE3), IPTG-induced
From the text: Construction of the mouse PBR expression vector (pET15bPBR) and Expression of Recombinant PBR in bacteria- The pET system (Novagen, Madison, WI) was used to express the MA-10 mouse PBR (mPBR) recombinant protein. […] This mPBR fragment was inserted into pET15b vector and linearized with NdeI and XhoI downstream of the T71ac promoter. Recombinant mPBR expression vector was used to transform the BL21(DE3) Escherichia coli strain (Novagen) where the expression of recombinant mPBR protein was induced by 1mM isopropyl-1-thiol-β-D-galactopyranoside (IPTG). PBR protein expression was monitored by SDS-PAGE followed by Coomassie Blue staining or immunoblot analysis using anti-PBR antiserum (Amri et al. 1996, supra). Binding specificity of the IPTG-induced PBR in E. coli was determined in binding studies where specific binding of ^3H-PK 11195 (1.0 nM) was measured in the presence of the indicated concentrations of the indicated ligands.
Radioligand binding assays- ^3H-1-(2-chlorophenyl)-N-methyl-N-(1-methyl-propyl)-3-isoquinolinecarboxamide (PK 11195) binding studies were performed as we previously described (Papadopoulos, V. et al. 1990, J. Biol. Chem. 265: 3772-3779; Garnier, M. et al. 1994, Mol. Pharm. 45:201-211). […]

PBR = target: T2, PBR (Mus musculus, UniProt P50637); assay: Ligand-induced release of 3H-cholesterol from membranes of IPTG-induced transformed bacteria; type: biochemical; details: cholesterol-loaded bacterial membranes (Fig. 3F)
T2 construct: made in house; host or cells: Escherichia coli BL21(DE3), IPTG-induced
Method: ^3H-Cholesterol uptake by E. coli cells was examined using the indicated concentrations of control or IPTG-treated transformed bacteria incubated in the presence of 6.7 nM ^3H-cholesterol (50.0 Ci/mmol) for 60 min at 37°C. Specific cholesterol uptake is defined as IPTG-induced minus basal values.

isolated mitochondria = details: cited from earlier work

Bmax (recombinant mPBR) [pmol/mg protein] | Compound | 3H-cholesterol released from cholesterol-loaded bacterial membranes (PBR) | intramitochondrial cholesterol transport and pregnenolone formation (mitochondrial steroidogenesis) (isolated mitochondria)
0.23 | CCC(C)N(C)C(=O)c1cc2ccccc2c(-c2ccccc2Cl)n1 (stereo not drawn) [PK 11195, 1-(2-chlorophenyl)-N-methyl-N-(1-methyl-propyl)-3-isoquinolinecarboxamide] | cholesterol was liberated from the membranes | –
– | TTN: naturally occurring processing product of DBI, the triakontatetrapeptide TTN (DBI17-50) (KTKPSDEEMLFIYGHYKQATVGDINTERPGMLDF; Triakontatetraneuropeptide; UniProt P07108 17-50, looked up, fragment) | – | able to mimic the effect of DBI

— patent EP1717249A1, “Peptides containing a cholesterol recognition sequence and their uses” (GEORGETOWN UNIVERSITY, priority 1998, dated 1999)
